# Literature values in patent US11666623B2, “Tetramaleimide linkers and use thereof” (NewBio Therapeutics, Inc., priority 2017, dated 2023).
# pIC50: −log10 of the molar value.
# Test system: human carcinoma lines
# Conditions: cited from earlier work
compound,measurement,value
"COc1cccc2c1C(=O)c1c(O)c3c(c(O)c1C2=O)C[C@@](O)(C(=O)CO)C[C@@H]3O[C@H]1C[C@H](N)[C@H](O)[C@H](C)O1 [doxorubicin, Doxorubicin]",pIC50,6.70 to 7.00
